Literature values, collected in US20220347065A1, “ANTIPERSPIRANT EMULSION” (Conopco, Inc., d/b/a UNILEVER, priority 2019, published 2022).

Test system: Staphylococcus epidermidis
Settings: 80% or greater reduction in growth, 16 to 24 hours at 37° C.

SMILES	MIC
CC(C)=CCCC(C)=CCCC(C)=CCO [farnesol, 3,7,11-trimethyldodeca-2,6,10-trienol]	ca. 25 μg·ml^−1
CCO [ethanol]	greater than 1 mg·ml^−1
Oc1cc(Cl)ccc1Oc1ccc(Cl)cc1Cl [triclosan, 2′,4,4′-trichloro,2-hydroxy-diphenyl ether]	0.01 to 10 µg/mL
